In patent US8952024B2, “Herbicidal pyrimidone derivatives” (E I du Pont de Nemours and Company, priority 2009, dated 2015):

Assays:
Type in all cases: in vivo
[1] = tested on: cocklebur (Xanthium strumarium); test: Test B pre-/postemergence plant response
In short: (§1)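 Compound in solvent + surfactant applied pre-em (loam/sand) or post-em (plants 2–18 cm, peat medium); greenhouse hold 13–15 days; visual 0–100 control score.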

[2] = tested on: goosegrass (Eleusine indica); test: Test B pre-/postemergence plant response
In short: as §1

[3] = tested on: johnsongrass (Sorghum halepense); test: Test B pre-/postemergence plant response
In short: as §1

[4] = tested on: kochia (Kochia scoparia); test: Test B pre-/postemergence plant response; conditions: Postemergence
In short: as §1

[5] = tested on: pigweed (Amaranthus retroflexus); test: Test B pre-/postemergence plant response
In short: as §1

[6] = tested on: ragweed (common ragweed, Ambrosia elatior); test: Test B pre-/postemergence plant response
In short: as §1

[7] = tested on: soybean (Glycine max); test: Test B pre-/postemergence plant response
In short: as §1

[8] = tested on: velvetleaf (Abutilon theophrasti); test: Test B pre-/postemergence plant response
In short: as §1

[9] = tested on: wheat (Triticum aestivum); test: Test B pre-/postemergence plant response
In short: as §1

[10] = tested on: wild oat (Avena fatua); test: Test B pre-/postemergence plant response
In short: as §1

[11] = tested on: canarygrass (Phalaris minor); test: Test B postemergence plant response; conditions: Postemergence
In short: (§2)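 Plants grown in peat/vermiculite medium were sprayed postemergence at 2–18 cm height (1- to 4-leaf stage). After 13–15 days in the greenhouse, response was rated visually against untreated controls on a 0–100 scale (0 no effect, 100 complete control).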

[12] = tested on: chickweed (Stellaria media); test: Test B postemergence plant response; conditions: Postemergence
In short: as §2

[13] = tested on: windgrass (Apera spica-venti); test: Test B postemergence plant response; conditions: Postemergence
In short: as §2

[14] = Preemergence, 62 g ai/ha, scale 0 to 100 (0 no effect, 100 complete control)
[15] = Preemergence, 250 g ai/ha, 0 to 100 scale
[16] = Postemergence, 31 g ai/ha, 0 to 100 scale (0 no effect, 100 complete control)
[17] = Postemergence, 62 g ai/ha, scale 0 to 100 (0 no effect, 100 complete control)
[18] = Postemergence, 125 g ai/ha, scale 0 to 100 (0 no effect, 100 complete control)
[19] = Postemergence, 250 g ai/ha, scale 0 to 100 (0 no effect, 100 complete control), 13 to 15 days
[20] = Preemergence, 31 g ai/ha, scale 0 to 100 (0 no effect, 100 complete control)
[21] = Preemergence, 125 g ai/ha, scale 0 to 100, 0 no effect, 100 complete control
[22] = 31 g ai/ha, 0 to 100 scale (0 no effect, 100 complete control)
[23] = 62 g ai/ha, scale 0 to 100 (0 no effect, 100 complete control)
[24] = 125 g ai/ha, scale 0 to 100 (0 no effect, 100 complete control)
[25] = 250 g ai/ha, scale 0 to 100 (0 no effect, 100 complete control), 13 to 15 days
[26] = 16 g ai/ha, Postemergence, 0 to 100 scale

SMILES: CCc1ccc(-n2c(-c3ccccc3)ncc(C(=O)C3=C(O)CCCC3=O)c2=O)cc1 [Compound 219]
- Plant response rating, Cocklebur [1, 14]: 75
- Cocklebur plant response rating [1, 15]: 85
- Plant response rating, Goosegrass [2, 16]: 90
- Plant response rating, Goosegrass [2, 17]: 95
- Plant response rating, Goosegrass [2, 18]: 95
- Plant response rating, Goosegrass [2, 19]: 95
- Plant response rating, Goosegrass [2, 20]: 98
- Plant response rating, Goosegrass [2, 14]: 100
- Plant response rating, Goosegrass [2, 21]: 100
- Goosegrass plant response rating [2, 15]: 100
- Plant response rating, Johnsongrass [3, 17]: 60
- Plant response rating, Johnsongrass [3, 18]: 98
- Plant response rating, Johnsongrass [3, 19]: 100
- Plant response rating, Johnsongrass [3, 20]: 0
- Plant response rating, Johnsongrass [3, 14]: 15
- Plant response rating, Johnsongrass [3, 21]: 65
- Johnsongrass plant response rating [3, 15]: 80
- Plant response rating, Kochia [4, 22]: 80
- Plant response rating, Kochia [4, 23]: 98
- Plant response rating, Kochia [4, 24]: 98
- Plant response rating, Kochia [4, 25]: 100
- Plant response rating, Pigweed [5, 16]: 100
- Plant response rating, Pigweed [5, 17]: 100
- Plant response rating, Pigweed [5, 19]: 100
- Plant response rating, Pigweed [5, 20]: 100
- Plant response rating, Pigweed [5, 14]: 100
- Plant response rating, Pigweed [5, 21]: 100
- Pigweed plant response rating [5, 15]: 100
- Plant response rating, Ragweed [6, 16]: 80
- Plant response rating, Ragweed [6, 17]: 98
- Plant response rating, Ragweed [6, 19]: 100
- Plant response rating, Ragweed [6, 20]: 45
- Plant response rating, Ragweed [6, 14]: 75
- Plant response rating, Ragweed [6, 21]: 85
- Ragweed plant response rating [6, 15]: 98
- Plant response rating, Soybean [7, 16]: 95
- Plant response rating, Soybean [7, 17]: 98
- Plant response rating, Soybean [7, 19]: 100
- Plant response rating, Soybean [7, 20]: 0
- Plant response rating, Soybean [7, 14]: 0
- Plant response rating, Soybean [7, 21]: 65
- Soybean plant response rating [7, 15]: 75
- Plant response rating, Velvetleaf [8, 16]: 85
- Plant response rating, Velvetleaf [8, 17]: 90
- Plant response rating, Velvetleaf [8, 19]: 98
- Plant response rating, Velvetleaf [8, 20]: 0
- Plant response rating, Velvetleaf [8, 14]: 75
- Plant response rating, Velvetleaf [8, 21]: 90
- Velvetleaf plant response rating [8, 15]: 95
- Plant response rating, Wheat [9, 16]: 40
- Plant response rating, Wheat [9, 17]: 50
- Plant response rating, Wheat [9, 19]: 50
- Plant response rating, Wheat [9, 20]: 0
- Plant response rating, Wheat [9, 14]: 0
- Plant response rating, Wheat [9, 21]: 0
- Wheat plant response rating [9, 15]: 0
- Plant response rating, Oat, Wild [10, 16]: 50
- Plant response rating, Oat, Wild [10, 17]: 70
- Plant response rating, Oat, Wild [10, 19]: 85
- Plant response rating, Oat, Wild [10, 20]: 0
- Plant response rating, Oat, Wild [10, 14]: 0
- Plant response rating, Oat, Wild [10, 21]: 5
- Oat, Wild plant response rating [10, 15]: 40
- Plant response rating, Canarygrass [11, 22]: 35
- Plant response rating, Canarygrass [11, 23]: 55
- Plant response rating, Canarygrass [11, 24]: 55
- Plant response rating, Canarygrass [11, 25]: 55
- Plant response rating, Chickweed [12, 22]: 100
- Plant response rating, Chickweed [12, 23]: 100
- Plant response rating, Chickweed [12, 24]: 100
- Plant response rating, Chickweed [12, 25]: 100
- Plant response rating, Windgrass [13, 22]: 35
- Plant response rating, Windgrass [13, 23]: 40
- Plant response rating, Windgrass [13, 25]: 85

SMILES: CC1(C)CC(=O)C(C(=O)c2cnc(-c3ccccc3)n(-c3ccccc3)c2=O)=C(O)C1 [Compound 225]
- Plant response rating, Cocklebur [1, 26]: 85
- Plant response rating, Cocklebur [1, 16]: 98
- Plant response rating, Cocklebur [1, 17]: 100
- Plant response rating, Cocklebur [1, 18]: 100
- Plant response rating, Goosegrass [2, 26]: 80
- Plant response rating, Goosegrass [2, 16]: 85
- Plant response rating, Goosegrass [2, 17]: 90
- Plant response rating, Goosegrass [2, 18]: 95
- Plant response rating, Johnsongrass [3, 26]: 20
- Plant response rating, Johnsongrass [3, 16]: 60
- Plant response rating, Johnsongrass [3, 17]: 75
- Plant response rating, Johnsongrass [3, 18]: 75
- Plant response rating, Kochia ([4]; 16 g ai/ha, 0 to 100 scale): 5
- Plant response rating, Kochia [4, 22]: 5
- Plant response rating, Kochia [4, 23]: 10
- Plant response rating, Kochia [4, 24]: 15
- Plant response rating, Pigweed [5, 26]: 80
- Plant response rating, Pigweed [5, 16]: 90
- Plant response rating, Pigweed [5, 17]: 95
- Plant response rating, Ragweed [6, 26]: 70
- Plant response rating, Ragweed [6, 16]: 75
- Plant response rating, Ragweed [6, 17]: 80
- Plant response rating, Soybean [7, 26]: 65
- Plant response rating, Soybean [7, 16]: 85
- Plant response rating, Soybean [7, 17]: 95
- Plant response rating, Velvetleaf [8, 26]: 80
- Plant response rating, Velvetleaf [8, 16]: 80
- Plant response rating, Velvetleaf [8, 17]: 90
- Plant response rating, Wheat [9, 26]: 20
- Plant response rating, Wheat [9, 16]: 30
- Plant response rating, Wheat [9, 17]: 40
- Plant response rating, Oat, Wild [10, 26]: 25
- Plant response rating, Oat, Wild [10, 16]: 45
- Plant response rating, Oat, Wild [10, 17]: 50
- Plant response rating, Canarygrass ([11]; 16 g ai/ha, 0 to 100 scale): 55
- Plant response rating, Canarygrass [11, 22]: 60
- Plant response rating, Canarygrass [11, 23]: 85
- Plant response rating, Canarygrass [11, 24]: 85
- Plant response rating, Chickweed ([12]; 16 g ai/ha, 0 to 100 scale): 15
- Plant response rating, Chickweed [12, 22]: 25
- Plant response rating, Chickweed [12, 23]: 40
- Plant response rating, Chickweed [12, 24]: 95
- Plant response rating, Windgrass ([13]; 16 g ai/ha, 0 to 100 scale): 5
- Plant response rating, Windgrass [13, 22]: 50
- Plant response rating, Windgrass [13, 23]: 55
